This note sets out measurements from patent publication US10426755B2, “Methods for inhibiting cancer cells” (Chang Gung Memorial Hospital, Chiayi, priority 2015, dated 2019).

The test concerns lung cancer cell lines (A549 and chemotherapy-resistant/metastatic H460). The experiment in a line: XTT proliferation assay, lung cancer cells. It counts as cell-based. The conditions noted are these: DT 5, 10, 20 μM; gemcitabine hydrochloride and etoposide 10, 20 μM; 1-2 days; regardless of the dosage; also H460; FIG. 2. How it is done: The prostate cancer cells were plated at a density of 10^3 or 3×10^3 per well, in a 96-well plate, in a medium containing 10% Fetal bovine serum (FBS) (Gibco®, commercially available from Life Technologies, USA). Once the prostate cancer cells were attached to the culture dish, the 10% FBS medium was replaced with a second 10% FBS medium and each of the prostate cancer cell line was treated with 1, 5, and 10 μM of DT respectively for 1-2 days. The absorbance was measured using XTT assay kit (commercially available from Roche, Switzerland) at 492 nm using an ELISA reader (Bio-Rad Laboratories, USA). An in vitro evaluation of the effect of DT, gemcitabine (a chemotherapeutic agent) and etoposide (a chemotherapeutic agent) on the lung cancer cells was performed. The lung cancer cell lines, chemotherapy-resistant/metastatic H460 lung cancer cells (with pleural metastasis) and A549 lung cancer cells, were purchased from Bioresource Collection and Research Center, Taiwan. […] The absorbance was measured using XTT assay kit at 492 nm using an ELISA reader.
For orientation: Tetrazolium assays rely on reduction of a dye to a coloured formazan, in cell work by metabolically active cells.

In the case of `COc1cc([C@@H]2c3cc4c(cc3[C@@H](O[C@@H]3O[C@@H]5CO[C@@H](C)O[C@H]5[C@H](O)[C@H]3O)[C@H]3COC(=O)[C@H]23)OCO4)cc(OC)c1O` [etoposide, reference compound], the “inhibition of lung cancer proliferation, DT compared with gemcitabine and etoposide” value was “DT is more effective than gemcitabine and etoposide”.
The value for `Nc1ccn([C@@H]2O[C@H](CO)[C@@H](O)C2(F)F)c(=O)n1` [gemcitabine, reference compound] was “DT is more effective than gemcitabine and etoposide”.
